The source of these data is ChEMBL document CHEMBL4823291, “Discovery of 5,6,7,8-tetrahydropyrido[3,4-d]pyrimidine derivatives as novel selective Axl inhibitors” (Bioorg Med Chem Lett, 2021).

SMILES strings stand for the structures.

The target in the first assay is T1, Tyrosine-protein kinase receptor UFO (Homo sapiens, UniProt P30530).
T1 sequence (P30530 whole entry): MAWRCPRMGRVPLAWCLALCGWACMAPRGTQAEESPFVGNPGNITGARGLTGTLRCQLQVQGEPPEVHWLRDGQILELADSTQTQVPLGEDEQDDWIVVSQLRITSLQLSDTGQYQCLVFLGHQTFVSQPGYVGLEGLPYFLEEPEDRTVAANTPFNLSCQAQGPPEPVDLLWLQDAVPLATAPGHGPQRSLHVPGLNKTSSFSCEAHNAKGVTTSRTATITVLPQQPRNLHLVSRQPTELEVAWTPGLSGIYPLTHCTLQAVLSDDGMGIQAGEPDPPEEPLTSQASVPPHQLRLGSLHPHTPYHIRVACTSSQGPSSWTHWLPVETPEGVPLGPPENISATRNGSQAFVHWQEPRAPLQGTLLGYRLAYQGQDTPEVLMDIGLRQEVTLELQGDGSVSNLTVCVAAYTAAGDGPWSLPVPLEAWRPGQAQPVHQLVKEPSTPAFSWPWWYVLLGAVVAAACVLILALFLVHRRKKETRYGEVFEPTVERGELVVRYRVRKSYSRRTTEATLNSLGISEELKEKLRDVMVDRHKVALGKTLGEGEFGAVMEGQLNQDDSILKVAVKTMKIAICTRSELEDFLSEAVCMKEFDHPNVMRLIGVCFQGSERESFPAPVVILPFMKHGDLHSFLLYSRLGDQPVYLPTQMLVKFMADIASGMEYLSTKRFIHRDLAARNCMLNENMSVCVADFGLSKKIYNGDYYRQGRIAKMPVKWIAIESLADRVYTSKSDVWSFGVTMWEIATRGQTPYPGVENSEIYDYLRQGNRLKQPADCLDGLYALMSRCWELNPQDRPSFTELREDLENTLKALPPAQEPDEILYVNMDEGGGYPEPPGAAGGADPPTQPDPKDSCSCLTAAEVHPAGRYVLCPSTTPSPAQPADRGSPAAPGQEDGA
The assay can be described thus: Inhibition of Axl (unknown origin) by cell free assay.
In general, IC50 refers to the point on the concentration scale where inhibition reaches its midpoint. `CC(C)n1cc(C(=O)Nc2ccc(Oc3ncnc4c3CCN(CC3CN(C)C3)C4)c(F)c2)c(=O)n(-c2ccc(F)cc2)c1=O`: inhibition was half-maximal at 6.3 nM (IC50).
Regarding `CN1CCC(CN2CCc3c(ncnc3Oc3ccc(NC(=O)c4cn(C5CC5)c(=O)n(-c5ccc(F)cc5)c4=O)cc3F)C2)CC1`, 32 nM corresponded to half-maximal inhibition (IC50).
Compound `CC(C)n1cc(C(=O)Nc2ccc(Oc3ncnc4c3CCN(C(=O)CC3CCN(C)CC3)C4)c(F)c2)c(=O)n(-c2ccc(F)cc2)c1=O` displayed an IC50 of 4.3 nM.

A further assay has as its target T2, Tyrosine-protein kinase Mer (Homo sapiens, UniProt Q12866).
T2 sequence (Q12866 whole entry): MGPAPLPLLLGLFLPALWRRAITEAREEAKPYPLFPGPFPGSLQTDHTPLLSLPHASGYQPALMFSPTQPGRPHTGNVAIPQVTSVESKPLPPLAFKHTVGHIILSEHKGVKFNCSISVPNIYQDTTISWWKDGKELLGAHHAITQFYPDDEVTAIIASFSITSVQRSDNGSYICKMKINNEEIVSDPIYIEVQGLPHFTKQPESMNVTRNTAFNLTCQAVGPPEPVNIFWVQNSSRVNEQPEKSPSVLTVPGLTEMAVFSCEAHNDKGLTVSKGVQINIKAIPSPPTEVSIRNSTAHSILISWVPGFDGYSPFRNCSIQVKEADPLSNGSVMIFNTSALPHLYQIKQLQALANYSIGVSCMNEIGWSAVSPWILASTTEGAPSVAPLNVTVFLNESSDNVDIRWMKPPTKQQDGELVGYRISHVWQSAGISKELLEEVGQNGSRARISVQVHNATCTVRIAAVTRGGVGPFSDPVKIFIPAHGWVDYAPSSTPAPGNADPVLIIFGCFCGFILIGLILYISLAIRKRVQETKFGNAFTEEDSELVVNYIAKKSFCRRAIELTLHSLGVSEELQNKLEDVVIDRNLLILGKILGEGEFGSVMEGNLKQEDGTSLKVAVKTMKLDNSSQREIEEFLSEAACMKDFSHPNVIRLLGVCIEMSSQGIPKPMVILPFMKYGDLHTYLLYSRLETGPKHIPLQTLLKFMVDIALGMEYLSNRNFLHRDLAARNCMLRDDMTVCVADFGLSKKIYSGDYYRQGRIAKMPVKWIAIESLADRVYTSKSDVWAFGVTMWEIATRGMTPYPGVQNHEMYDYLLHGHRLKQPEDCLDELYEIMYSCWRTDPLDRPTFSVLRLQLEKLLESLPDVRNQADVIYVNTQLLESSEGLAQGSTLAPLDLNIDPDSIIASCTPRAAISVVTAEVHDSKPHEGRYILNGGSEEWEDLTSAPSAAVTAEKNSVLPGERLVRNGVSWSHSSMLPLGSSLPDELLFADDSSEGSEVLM
The assay can be described thus: Inhibition of Mer (unknown origin) by cell free assay.
The compound `CC(C)n1cc(C(=O)Nc2ccc(Oc3ncnc4c3CCN(CC3CN(C)C3)C4)c(F)c2)c(=O)n(-c2ccc(F)cc2)c1=O` registered an IC50 of 77 nM.
Compound `CN1CCC(CN2CCc3c(ncnc3Oc3ccc(NC(=O)c4cn(C5CC5)c(=O)n(-c5ccc(F)cc5)c4=O)cc3F)C2)CC1` gave a 50% inhibitory concentration (IC50) of 830 nM.
For `CC(C)n1cc(C(=O)Nc2ccc(Oc3ncnc4c3CCN(C(=O)CC3CCN(C)CC3)C4)c(F)c2)c(=O)n(-c2ccc(F)cc2)c1=O`, the IC50 worked out at 88 nM.

For the next assay, the species on record is Homo sapiens. The assay can be described thus: Ratio of IC50 for Mer (unknown origin) to IC50 for Axl (unknown origin).
Take `CC(C)n1cc(C(=O)Nc2ccc(Oc3ncnc4c3CCN(CC3CN(C)C3)C4)c(F)c2)c(=O)n(-c2ccc(F)cc2)c1=O`: the Ratio IC50 came out at 12.
Consider `CN1CCC(CN2CCc3c(ncnc3Oc3ccc(NC(=O)c4cn(C5CC5)c(=O)n(-c5ccc(F)cc5)c4=O)cc3F)C2)CC1`, for which the Ratio IC50 turned out to be 26.
For the compound `CC(C)n1cc(C(=O)Nc2ccc(Oc3ncnc4c3CCN(C(=O)CC3CCN(C)CC3)C4)c(F)c2)c(=O)n(-c2ccc(F)cc2)c1=O`, the Ratio IC50 is 20.

For another assay, the target named is T3, Tyrosine-protein kinase receptor UFO (Mus musculus, UniProt Q00993).
T3 sequence (Q00993 whole entry): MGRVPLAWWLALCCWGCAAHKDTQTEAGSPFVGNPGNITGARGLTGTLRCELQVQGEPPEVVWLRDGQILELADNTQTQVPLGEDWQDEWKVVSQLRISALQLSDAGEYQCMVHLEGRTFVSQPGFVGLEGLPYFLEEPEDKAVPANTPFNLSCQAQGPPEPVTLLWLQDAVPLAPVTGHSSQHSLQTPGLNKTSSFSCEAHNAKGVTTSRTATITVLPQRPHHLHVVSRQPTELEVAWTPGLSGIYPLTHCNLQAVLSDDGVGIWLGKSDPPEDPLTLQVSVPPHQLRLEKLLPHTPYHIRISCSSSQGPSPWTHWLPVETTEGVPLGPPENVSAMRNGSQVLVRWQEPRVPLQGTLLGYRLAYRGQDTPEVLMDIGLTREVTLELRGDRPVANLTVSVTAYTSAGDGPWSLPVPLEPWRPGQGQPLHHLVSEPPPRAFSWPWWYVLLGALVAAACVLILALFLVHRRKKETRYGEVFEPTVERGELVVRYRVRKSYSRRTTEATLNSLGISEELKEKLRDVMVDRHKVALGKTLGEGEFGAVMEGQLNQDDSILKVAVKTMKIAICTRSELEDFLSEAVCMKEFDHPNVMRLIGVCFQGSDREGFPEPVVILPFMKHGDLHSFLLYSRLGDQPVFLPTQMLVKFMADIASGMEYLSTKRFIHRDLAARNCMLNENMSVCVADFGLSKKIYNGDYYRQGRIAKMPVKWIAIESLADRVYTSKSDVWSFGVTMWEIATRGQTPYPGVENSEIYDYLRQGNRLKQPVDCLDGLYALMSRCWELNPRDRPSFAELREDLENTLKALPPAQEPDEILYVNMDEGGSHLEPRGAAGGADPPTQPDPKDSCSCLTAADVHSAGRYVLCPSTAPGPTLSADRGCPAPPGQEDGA
The assay can be described thus: Inhibition of Axl in mouse BaF3 cells. It counts as cell-based.
`CC(C)n1cc(C(=O)Nc2ccc(Oc3ncnc4c3CCN(CC3CN(C)C3)C4)c(F)c2)c(=O)n(-c2ccc(F)cc2)c1=O` registered an IC50 of 22 nM.
In the case of `CN1CCC(CN2CCc3c(ncnc3Oc3ccc(NC(=O)c4cn(C5CC5)c(=O)n(-c5ccc(F)cc5)c4=O)cc3F)C2)CC1`, the IC50 was 770 nM.
For `CC(C)n1cc(C(=O)Nc2ccc(Oc3ncnc4c3CCN(C(=O)CC3CCN(C)CC3)C4)c(F)c2)c(=O)n(-c2ccc(F)cc2)c1=O`, the IC50 was 29 nM.

Another assay deals with T4, Tyrosine-protein kinase Mer (Mus musculus, UniProt Q60805).
T4 sequence (Q60805 whole entry): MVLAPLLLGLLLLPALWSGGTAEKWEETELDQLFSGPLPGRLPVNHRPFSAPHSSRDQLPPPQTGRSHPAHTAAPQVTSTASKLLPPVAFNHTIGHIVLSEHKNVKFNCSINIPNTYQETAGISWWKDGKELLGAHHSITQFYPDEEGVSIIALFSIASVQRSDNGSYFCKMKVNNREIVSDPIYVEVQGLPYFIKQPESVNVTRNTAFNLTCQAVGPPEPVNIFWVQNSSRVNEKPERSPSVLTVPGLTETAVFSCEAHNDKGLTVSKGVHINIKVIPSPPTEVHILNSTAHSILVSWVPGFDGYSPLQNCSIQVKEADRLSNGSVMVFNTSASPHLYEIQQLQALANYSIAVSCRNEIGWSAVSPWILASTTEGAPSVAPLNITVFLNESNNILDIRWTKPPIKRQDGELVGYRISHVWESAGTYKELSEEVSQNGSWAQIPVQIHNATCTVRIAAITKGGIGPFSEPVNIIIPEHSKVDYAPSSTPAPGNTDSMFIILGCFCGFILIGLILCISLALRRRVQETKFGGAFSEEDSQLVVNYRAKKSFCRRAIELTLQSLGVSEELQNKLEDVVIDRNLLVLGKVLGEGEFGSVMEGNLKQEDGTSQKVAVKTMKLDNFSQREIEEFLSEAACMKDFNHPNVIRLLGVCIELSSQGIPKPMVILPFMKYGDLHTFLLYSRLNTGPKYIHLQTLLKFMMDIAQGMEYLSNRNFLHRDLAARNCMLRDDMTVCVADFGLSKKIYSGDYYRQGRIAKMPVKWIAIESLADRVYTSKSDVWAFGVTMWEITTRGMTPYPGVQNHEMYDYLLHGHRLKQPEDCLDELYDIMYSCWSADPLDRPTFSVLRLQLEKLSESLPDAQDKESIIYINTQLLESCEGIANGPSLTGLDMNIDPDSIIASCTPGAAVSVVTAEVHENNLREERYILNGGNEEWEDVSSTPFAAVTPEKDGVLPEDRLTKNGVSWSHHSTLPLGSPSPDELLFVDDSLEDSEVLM
The assay is described as follows: Inhibition of Mer in mouse BaF3 cells. In kind it is cell-based.
For `CC(C)n1cc(C(=O)Nc2ccc(Oc3ncnc4c3CCN(CC3CN(C)C3)C4)c(F)c2)c(=O)n(-c2ccc(F)cc2)c1=O`, 92 nM corresponded to half-maximal inhibition (IC50).
Same read-out and setting: as for `CN1CCC(CN2CCc3c(ncnc3Oc3ccc(NC(=O)c4cn(C5CC5)c(=O)n(-c5ccc(F)cc5)c4=O)cc3F)C2)CC1`, the figure is 4110 nM; as for `CC(C)n1cc(C(=O)Nc2ccc(Oc3ncnc4c3CCN(C(=O)CC3CCN(C)CC3)C4)c(F)c2)c(=O)n(-c2ccc(F)cc2)c1=O`, 150 nM.

In the next assay the test system is BaF3. The assay is described as follows: Ratio of IC50 for Mer in mouse BaF3 cells to IC50 for Axl in mouse BaF3 cells. It counts as cell-based.
`CC(C)n1cc(C(=O)Nc2ccc(Oc3ncnc4c3CCN(CC3CN(C)C3)C4)c(F)c2)c(=O)n(-c2ccc(F)cc2)c1=O`: the Ratio IC50 came to 4.2.
`CN1CCC(CN2CCc3c(ncnc3Oc3ccc(NC(=O)c4cn(C5CC5)c(=O)n(-c5ccc(F)cc5)c4=O)cc3F)C2)CC1`: the Ratio IC50 stood at 5.3.
Still for that read-out and setting: to `CC(C)n1cc(C(=O)Nc2ccc(Oc3ncnc4c3CCN(C(=O)CC3CCN(C)CC3)C4)c(F)c2)c(=O)n(-c2ccc(F)cc2)c1=O` belongs 5.2.
